In experiment [1] the test system is human myeloid progenitors (CFU-GM). Briefly: Colony forming cell assay, human myeloid (granulocyte-monocyte, CFU-GM) progenitor proliferation. The class given is cell-based. Conditions: single agent. The method, then:
Clonogenic progenitors of human erythroid (CFU-E, BFU-E), granulocyte-monocyte (CFU-GM), and multipotential (CFU-GEMM) lineages were assessed in a semi-solid methylcellulose-based media formulation containing rhIL-3 (10 ng/mL), rhGM-SCF (10 ng/mL), rhSCF (50 ng/mL), and Epo (3 U/mL).
In addition, 5-FU was evaluated at 1.0, 0.1 and 0.01 μg/mL as a positive control for toxicity.
Normal human bone marrow light density cells (lot #0210901), derived from normal bone marrow, (Lonza, Maryland) and qualified at ReachBio, were stored at −152° C. until required for the assay. On the day of the experiment, the cells were thawed rapidly, diluted in 10 mL of Iscove's modified Dulbecco's medium containing 10% fetal bovine serum (IMDM+10% FBS) and washed by centrifugation (approximately 1500 r.p.m. for 10 minutes at room temperature). The supernatant was discarded and the cell pellets were resuspended in a known volume of IMDM+10% FBS. A cell count (3% glacial acetic acid) and viability assessment (trypan blue exclusion test) was performed for the bone marrow sample.
Clonogenic progenitors of human megakaryocyte (CFU-Mk) were assessed in a collagen-based media formulation containing rhIL-3 (10 ng/mL), rhIL-6 (10 ng/mL), and Tpo (50 ng/mL). Clonogenic progenitors of the human erythroid (CFU-E and BFU-E), myeloid (CFU-GM), and megakaryocyte (CFU-Mk) lineages were set up in the media formulations described above. Individually, the test compounds were added to the medium to give the final desired concentrations (10, 3.33, 1, 0.333, 0.1, 0.0333, 0.01 and 0.00333 μM). […] Solvent control cultures (containing no compound but 0.1% DMSO) as well as standard controls (containing no compound and no DMSO) were also initiated. Once introduced into the matrices, the tubes were vortexed to ensure an equal distribution throughout.
Human myeloid and erythroid progenitor assays were initiated at 1.2×10^4 cells per culture (lot #0210921) and the human megakaryocyte assays were initiated at 1.2×10^5 cells per culture (lot #0210921). Following 14 days in culture, erythroid and myeloid colonies were assessed microscopically in situ and scored by trained personnel. The colonies were divided into the following categories based on size and morphology: CFU-E, BFU-E, CFU-GM, and CFU-GEMM. The human megakaryocyte cultures were transferred from the 35 mm dishes to labeled glass slides, fixed with methanol/acetone fixative, and then stained with anti-human CD41 antibody and an alkaline phosphate detection system according to manufacturers' instructions. The colonies were assessed microscopically and scored by trained personnel and divided into the following categories based on size: CFU-Mk (3-20), CFU-Mk (21-49), and CFU-Mk (≥50).
Statistical analysis: The mean±standard deviation of three replicate cultures was calculated for both erythroid and myeloid progenitors. Two-tailed standard t-tests were performed to assess if there was a difference in the number of colonies generated between solvent control and treated cultures. Due to the potential subjectivity of colony enumeration, a p value of less than 0.01 is deemed significant. To calculate the concentration of 50% inhibition of colony growth (IC50) for each compound, a dose response curve was generated plotting the log of the compound concentration versus the percentage of control colony growth using GraphPad Prism 9 software.
Erythroid (CFU-E and BFU-E) and myeloid (CFU-GM) colony enumeration was performed by trained personnel. In addition, the distribution of colony types as well as general colony and cellular morphology was analyzed. The variance in colony number detected in replicate cultures was representative of the historical coefficient of variation for colony enumeration using these types of assays. The number and distribution of colonies detected in the solvent control (0.1% DMSO for single agents) was no different from the standard control (containing no compound and no DMSO). […]

In a further experiment the test system is PIM1. Conditions: read-out: Preclinical IC50, PIM1; cited from earlier work.

As to `CC(C)(O)[C@H]1CC[C@H](Nc2ccc3ncc(-c4cccc(C(F)(F)F)c4)n3n2)CC1` [Compound (1)], the IC50 in experiment [1] (Homo sapiens, 336 h, 14 days, CFU-GM) was 1310 nM; in the experiment with PIM1, 5 nM. In addition, in experiment [1] (vs 0.1% DMSO solvent control, p<0.01), the “concentrations at which myeloid progenitor proliferation was (significantly, additionally) inhibited” value came to 1.0 µM.

In general, IC50 refers to the concentration that gives 50% inhibition.

The values are drawn from patent publication US20260306490A1, “PIM1 INHIBITOR FOR TREATING MYELOPROLIFERATIVE NEOPLASMS” (Sumitomo Pharma America, Inc., priority 2022, published 2026).
